Reference: US20030013660A1, “Dioxolane analogs for improved inter-cellular delivery” (Shire BioChem Inc., priority 2000, published 2003)
“And” between values parts separate entries of the source, which are not always exact repeats. Identical values can stand only once.

Columns and labels:
CEM/dCK- [1] = assay: 3H-TdR incorporation at 72 hr (24 hr drug exposure, wash, 48 hr); type: cell-based; settings: Homo sapiens, CCRF-CEM, read-out: IC50 in μM (3H-TdR incorporation at 72 hr) CEM/dCK- 24 h, CCRF-CEM deoxycytidine kinase-deficient; 24 h drug exposure, 72 hr assay
Description: (§1) Exposition of 24 hr to drug, wash, incubated for another 48 hr (total of 72 hr assay)
(§2) (3H-Thymidine Incorporation Assay)

H-460 [2] = assay: as above; type: cell-based, Human; settings: Homo sapiens, NCI-H460, read-out: IC50 in μM (3H-TdR incorporation at 72 hr) H-460 24 h, H-460 Human Lung Carcinoma, 72 hr assay
Description: as §1, §2

MCF-7 [3] = assay: as above; type: cell-based, Human; settings: Homo sapiens, MCF7, read-out: IC50 in μM (3H-TdR incorporation at 72 hr) MCF-7 24 h, MCF-7 Human Breast Carcinoma, 72 hr assay
Description: as §1, §2

SF-268 [4] = assay: as above; type: cell-based, Human; settings: Homo sapiens, SF-268, read-out: IC50 in μM (3H-TdR incorporation at 72 hr) SF-268 24 h, SF-268 Human Central Nervous System Tumor; 24 h drug exposure, 72 hr assay
Description: as §1, §2

CEM/dCK- [5] = assay: MTT or WST-1 assay at 72 hr (24 hr drug exposure, wash, 48 hr); type: cell-based; settings: for Resistance Factor*: single experiment
Description: (§3) Exposition of 24hr to drug, washed, and incubated for another 48hr (total of 72hr assay)

CCRF-CEM [6] = assay: as above; type: cell-based
Description: as §3

H-460 [7] = assay: MTT assay at 72 hr (24 hr drug exposure, wash, 48 hr); type: cell-based
Description: as §3

MCF-7 [8] = assay: as above; type: cell-based; settings: Homo sapiens
Description: as §3

SF-268 [9] = assay: as above; type: cell-based
Description: as §3

MCF-7 [10] = assay: 3H-TdR (3H-thymidine) incorporation assay at 72 hr; type: cell-based, Human
CEM/dCK- [11] = assay: 3H-TdR (3H-thymidine) incorporation assay at 72 hr; type: cell-based
Description: (§4) Table of IC50 Values (μM) for Controls
as §1, §2

CCRF-CEM [12] = assay: 3H-TdR (3H-thymidine) incorporation assay at 72 hr; type: cell-based
Description: as §4, §1, §2

SF-268 [13] = assay: 3H-TdR (3H-thymidine) incorporation assay at 72 hr; type: cell-based, Human
H-460 [14] = assay: 3H-TdR (3H-thymidine) incorporation assay at 72 hr; type: cell-based, Human
CEM cells = assay: CellTiter 96 cell proliferation assay (chemosensitivity), 48 h; type: cell-based
Description: The chemosensitivity of suspension cells lines (e.g., CEM or CEM-derivatives) is assessed using the CellTiter 96 ? proliferation assay. […] Adherent cell lines (e.g., DU145 or DU145^R) are seeded (^˜10^5 cells) in triplicate dishes, 24 h before drug exposure. Growth inhibition is determined by trypsinization and counting cells electronically.

[15] = read-out: IC50 CEM/dCK- 24 h, MMT or WST-1 at 72 hr, 24 h exposure, single experiment
[16] = Homo sapiens, CCRF-CEM, read-out: IC50 CCRF-CEM 24 h, MMT or WST-1 at 72 hr, 24 h exposure, single experiment
[17] = Homo sapiens, NCI-H460, read-out: IC50 H-460 24 h, MTT at 72 hr, 24 h exposure, single experiment
[18] = MCF7, read-out: IC50 MCF-7 24 h, MTT at 72 hr, 24 h exposure, single experiment
[19] = Homo sapiens, SF-268, read-out: IC50 SF-268 24 h, MTT at 72 hr, 24 h exposure, single experiment
[20] = Homo sapiens, CCRF-CEM, read-out: IC50 CEM/dCK- 24 h, 24 h drug exposure, wash, another 48 hr, deoxycytidine kinase-deficient CCRF-CEM
[21] = Homo sapiens, SF-268, 24 h, read-out: IC50 SF-268 24 h, Average, Average ± spread of the repeat determinations, 24 h exposure
[22] = read-out: IC50 SF-268 24 h, 24 h drug exposure, wash, another 48 hr, 3H-TdR incorporation at 72 hr
[23] = Homo sapiens, NCI-H460, 24 h, read-out: IC50 H-460 24 h, Average, Average ± spread of the repeat determinations, 24 h exposure
[24] = Homo sapiens, SF-268, read-out: IC50 SF-268 24 h, Average, MTT at 72 hr, Average of the experiments
[25] = read-out: IC50 H-460 24 h, 24 h drug exposure, wash, another 48 hr, 3H-TdR incorporation at 72 hr

| SMILES | IC50 (CEM/dCK- [1]) | IC50 (H-460 [2]) | IC50 (MCF-7 [3]) | IC50 (SF-268 [4]) | Resistance Factor* (CEM/dCK- [5]; CEM/dCK- versus CCRF-CEM) | IC50 (CEM/dCK- [5]; [15]) | IC50 (CCRF-CEM [6]; [16]) | IC50 (H-460 [7]; [17]) | IC50 (MCF-7 [8]; [18]) | IC50 (SF-268 [9]; [19]) | IC50 (CEM/dCK- [11]; [20]) | IC50 (SF-268 [13]; [21]) | IC50 (SF-268 [13]; [22]) | IC50 (H-460 [14]; [23]) | IC50 (SF-268 [9]; [24]) | IC50 (H-460 [14]; [25]) | also measured |
| --- | --- | --- | --- | --- | --- | --- | --- | --- | --- | --- | --- | --- | --- | --- | --- | --- | --- |
| CCCCCCCC/C=C/CCCCCCCC(=O)Nc1ccn([C@@H]2CO[C@H](CO)O2)c(=O)n1 (stereo in doubt) [Compound 216, Octadec-9-enoic acid [1-(2-hydroxymethyl-[1,3]dioxolan-4-yl)-2-oxo-1,2-dihydro-pyrimidin-4-yl]-amide] | 14 µM | 0.00088 µM | ≤ 0.0001 µM | 0.018 µM | 91 | 31000 nM | 340 nM | 64 nM | 9.4 nM | 400 nM |  |  |  |  |  |  |  |
| Nc1ccn([C@@H]2CO[C@H](CO)O2)c(=O)n1 [BCH-4556] |  |  |  |  |  |  |  |  |  |  | > 100000 nM | 440 nM | 330 nM and 660 nM | 120 nM | 29000 ± 23000 nM |  | Resistance Factor*, Average (CEM/dCK- [5]; CEM/dCK- versus CCRF-CEM, Average of the experiments): 349 ± 283; IC50 (CEM/dCK- [5]; read-out: IC50 CEM/dCK- 24 h, Average, MMT or WST-1 at 72 hr, Average of the experiments): > 100000 nM; IC50 (CCRF-CEM [6]; Homo sapiens, CCRF-CEM, read-out: IC50 CCRF-CEM 24 h, Average, MMT or WST-1 at 72 hr, Average of the experiments): 380 ± 280 nM; IC50 (CCRF-CEM [6]; read-out: IC50 CCRF-CEM 24 h, MMT or WST-1 at 72 hr, 24 h exposure, single experiment): 210 nM and 140 nM; IC50 (MCF-7 [10]; Homo sapiens, MCF7, 24 h, read-out: IC50 MCF-7 24 h, Average, Average ± spread of the repeat determinations, 24 h exposure): 180 nM; IC50 (MCF-7 [10]; Homo sapiens, MCF7, read-out: IC50 MCF-7 (72 h), 72 h exposure, 3H-TdR incorporation at 72 hr): 66 nM; IC50 (CEM/dCK- [11]; 24 h, read-out: IC50 CEM/dCK- 24 h, Average, Average ± spread of the repeat determinations, 24 h exposure): > 100000 nM; Factor* (Resistance Factor), Average (CEM/dCK- [11]; Average ± spread of the ratios dCK- on wild-type CCRF-CEM): 1792 ± 1584; IC50 (CEM/dCK- [11]; read-out: IC50 CEM/dCK- 24 h, 24 h drug exposure, wash, another 48 hr, deoxycytidine kinase-deficient CCRF-CEM): 56000 nM; IC50 (CCRF-CEM [12]; Homo sapiens, CCRF-CEM, 24 h, read-out: IC50 CCRF-CEM 24 h, Average, Average ± spread of the repeat determinations, 24 h exposure): 78 nM; IC50 (CCRF-CEM [12]; read-out: IC50 CCRF-CEM 24 h, 24 h drug exposure, wash, another 48 hr, 3H-TdR incorporation at 72 hr): 100 nM; IC50 (SF-268 [13]; Homo sapiens, SF-268, read-out: IC50 SF-268 (72 h), 72 h exposure, 3H-TdR incorporation at 72 hr): 96 nM; IC50 (H-460 [14]; Homo sapiens, NCI-H460, read-out: IC50 H-460 (72 h), 72 h exposure, 3H-TdR incorporation at 72 hr): 40 nM; IC50 (H-460 [7]; Homo sapiens, NCI-H460, read-out: IC50 H-460 24 h, Average, MTT at 72 hr, Average of the experiments): 1600 ± 1600 nM; IC50 (H-460 [7]; read-out: IC50 H-460 24 h, MTT at 72 hr, 24 h exposure, single experiment): 780 nM; IC50 (MCF-7 [8]; MCF7, read-out: IC50 MCF-7 24 h, Average, MTT at 72 hr, Average of the experiments): 2000 ± 2400 nM; IC50 (SF-268 [9]; read-out: IC50 SF-268 24 h, MTT at 72 hr, 24 h exposure, single experiment): 16000 nM |
| CCCCC/C=C\C/C=C\CCCCCCCC(=O)Nc1ccn([C@@H]2CO[C@H](CO)O2)c(=O)n1 [Compound 217, OCTADECA-9,12-DIENOIC ACID [1-(2- HYDROXYMETHYL- [1,3]DIOXOLAN-4-YL)-2- OXO-1,2-DIHYDRO- PYRIMIDIN-4-YL]-AMIDE] | 1.2 µM | ≤ 0.0001 µM | ≤ 0.0001 µM | 0.00013 µM | 75 | 27000 nM | 360 nM | 11 nM | 3.9 nM | 120 nM |  |  |  |  |  |  |  |
| CC(C)CCCCC(=O)Nc1ccn([C@@H]2CO[C@H](CO)O2)c(=O)n1 [Compound 277, 6-METHYL-HEPTANOIC ACID [1-(2-HYDROXYMETHYL- [1,3]DIOXOLAN-4-YL)-2- OXO-1,2-DIHYDRO- PYRIMIDIN-4-YL]-AMIDE] |  |  |  |  | >208 | > 100000 nM | 480 nM | 2000 nM | 320 nM | 7300 nM | > 100000 nM |  | 190 nM |  |  | 290 nM | IC50 (MCF-7 [10]; Homo sapiens, MCF7, read-out: IC50 MCF-7 24 h, 24 h drug exposure, wash, another 48 hr, 3H-TdR incorporation at 72 hr): 13 nM; IC50 (MCF-7 [10]; read-out: IC50 MCF-7 24 h, 24 h drug exposure, wash, another 48 hr, 3H-TdR incorporation at 72 hr): 16 nM; IC50 (SF-268 [13]; Homo sapiens, SF-268, read-out: IC50 SF-268 24 h, 24 h drug exposure, wash, another 48 hr, 3H-TdR incorporation at 72 hr): 210 nM; IC50 (H-460 [14]; Homo sapiens, NCI-H460, read-out: IC50 H-460 24 h, 24 h drug exposure, wash, another 48 hr, 3H-TdR incorporation at 72 hr): 200 nM |
| Nc1ccn([C@@H]2O[C@H](CO)[C@@H](O)[C@@H]2O)c(=O)n1 [Cytarabine, cytarabine, reference compound] |  |  |  |  |  |  |  |  |  |  |  | 940 nM |  | 52 nM | 25000 ± 23000 nM | 13 nM and 99 nM | EC50 (CEM cells; Homo sapiens, CCRF-CEM, 48 h, read-out: EC50 (50% of the dose response curve)): 10 nM; effect of the es transport inhibitor NBMPR on resistance of CEM cells (CEM cells; presence of NBMPR): increased resistance; IC50 (SF-268 [13]; read-out: IC50 SF-268 24 h, 24 h drug exposure, wash, another 48 hr, 3H-TdR incorporation at 72 hr, listed as Cytosine Arabinoside): 300 nM |
